Results reported in PubChem BioAssay AID256 (DTP/NCI, 2004).
“And” between values parts separate entries of the source, which are not always exact repeats. Identical values can stand only once. Toxic doses and inconclusive results are not listed. The calls were made as follows: active = survival T/C of 150% or more; inactive = T/C below 125% in these data.

System: CD2F1 mice, L1210 leukemia ip, survival T/C
Assay: NCI In Vivo Anticancer Drug Screen. Data for tumor model L1210 Leukemia (intraperitoneal) in CD2F1 (CDF1) mice
Conditions: endpoint: mean survival time, higher = longer survival
Procedure, shortened: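 Antitumor effect is scored in animals hosting a serially transplanted tumor. Values compare compound-dosed animals against vehicle-only controls as a simple quotient.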

[1] = dose: 100.0 mg/kg/injection, schedule: Q01DX001 (ip), vehicle: saline with Tween-80
[2] = dose: 100.0 mg/kg/injection, schedule: Q01DX001 (ip), vehicle: saline
[3] = dose: 200.0 mg/kg/injection, schedule: Q01DX001 (ip), vehicle: saline with Tween-80
[4] = dose: 400.0 mg/kg/injection, schedule: Q01DX001 (ip), vehicle: saline with Tween-80
[5] = dose: 100.0 mg/kg/injection, schedule: Q04DX003 (ip), vehicle: saline with Tween-80
[6] = dose: 200.0 mg/kg/injection, schedule: Q04DX003 (ip), vehicle: saline with Tween-80
[7] = dose: 50.0 mg/kg/injection, schedule: Q01DX009 (ip), vehicle: saline with Tween-80
[8] = dose: 100.0 mg/kg/injection, schedule: Q01DX009 (ip), vehicle: saline with Tween-80
[9] = dose: 200.0 mg/kg/injection, schedule: Q01DX009 (ip), vehicle: saline with Tween-80
[10] = dose: 200.0 mg/kg/injection, schedule: Q01DX001 (ip), vehicle: saline
[11] = dose: 400.0 mg/kg/injection, schedule: Q01DX001 (ip), vehicle: saline
[12] = dose: 12.5 mg/kg/injection, schedule: Q01DX009 (ip), vehicle: water
[13] = dose: 50.0 mg/kg/injection, schedule: Q01DX009 (ip), vehicle: water
[14] = dose: 400.0 mg/kg/injection, schedule: Q01DX009 (ip), vehicle: saline with Tween-80
[15] = dose: 400.0 mg/kg/injection, schedule: Q04DX003 (ip), vehicle: saline with Tween-80

Measured: T/C

Oc1ccccc1/C=N/c1nc(-c2ccccc2)cs1.Oc1ccccc1/C=N/c1nc(-c2ccccc2)cs1.[Zn]
inactive: dose: 25.0 mg/kg/injection, schedule: Q01DX001 (ip), vehicle: saline 103 % of control | dose: 50.0 mg/kg/injection, schedule: Q01DX001 (ip), vehicle: saline 100 % of control | [1] 104 % of control | [2] 91 % of control

CCCNCCNc1ccc(NCCNCCC)c2c1C(=O)c1ccccc1C2=O
inactive: dose: 4.0 mg/kg/injection, schedule: Q01DX009 (ip), vehicle: acid diluted with saline 100 % of control | dose: 8.0 mg/kg/injection, schedule: Q01DX009 (ip), vehicle: acid diluted with saline 110 % of control | dose: 16.0 mg/kg/injection, schedule: Q01DX009 (ip), vehicle: acid diluted with saline 110 % of control | dose: 32.0 mg/kg/injection, schedule: Q01DX009 (ip), vehicle: acid diluted with saline 93 % of control

CCOC(=O)CN1CCC(C2(c3cc4ccccc4[nH]3)OCCO2)CC1
inactive: [1] 102 % of control | [3] 102 % of control | [4] 102 % of control

Nc1ncnc2c1[nH]c(=O)n2C1OC(CO)C2OC21 (stereo not given)
inactive: dose: 12.5 mg/kg/injection, schedule: Q01DX005 (ip), vehicle: distilled water + Tween-80 102 % of control | dose: 25.0 mg/kg/injection, schedule: Q01DX005 (ip), vehicle: distilled water + Tween-80 95 % of control | dose: 50.0 mg/kg/injection, schedule: Q01DX005 (ip), vehicle: distilled water + Tween-80 101 % of control | dose: 100.0 mg/kg/injection, schedule: Q01DX005 (ip), vehicle: distilled water + Tween-80 92 % of control | dose: 200.0 mg/kg/injection, schedule: Q01DX005 (ip), vehicle: distilled water + Tween-80 95 % of control

CCOc1ccnc(OCC)n1
inactive: [5] 105 % of control | [6] 102 % of control

O=C(OC1CCC(c2ccccc2)C1)c1cc([N+](=O)[O-])cc([N+](=O)[O-])c1 (stereo not given)
inactive: dose: 75.0 mg/kg/injection, schedule: Q01DX001 (ip), vehicle: other 92 % of control | dose: 150.0 mg/kg/injection, schedule: Q01DX001 (ip), vehicle: other 92 % of control | dose: 300.0 mg/kg/injection, schedule: Q01DX001 (ip), vehicle: other 92 % of control

c1ccc(-c2c[s+]cc(-c3ccccc3)c2)cc1
inactive: dose: 50.0 mg/kg/injection, schedule: Q01DX001 (ip), vehicle: saline with Tween-80 109 % of control | [1] 104 % of control | [3] 110 % of control

O=C(CNC(=O)Nc1cccc([N+](=O)[O-])c1)N/N=C/c1ccccc1O
inactive: [7] 93 % of control | [8] 86 % of control | [9] 89 % of control

CCCCCCCCC(CCCCCC)CCCCCCCC
inactive: [2] 96 % of control | [10] 96 % of control | [11] 97 % of control

Oc1ccccc1C=NC1CCCCC1N=Cc1ccccc1O.[Ni] (stereo not given)
inactive: dose: 50.0 mg/kg/injection, schedule: Q04DX002 (ip), vehicle: saline with Tween-80 89 % of control | dose: 100.0 mg/kg/injection, schedule: Q04DX002 (ip), vehicle: saline with Tween-80 97 % of control | dose: 200.0 mg/kg/injection, schedule: Q04DX002 (ip), vehicle: saline with Tween-80 97 % of control | dose: 400.0 mg/kg/injection, schedule: Q04DX002 (ip), vehicle: saline with Tween-80 93 % of control

[Cl][Gd]([Cl])[Cl]
inactive: [8] 92 % of control | [9] 94 % of control

O=C1OCC2CC=CCC12 (stereo not given)
inactive: dose: 50.0 mg/kg/injection, schedule: Q01DX001 (ip), vehicle: carboxymethylcellulose (CMC) 92 % of control | dose: 100.0 mg/kg/injection, schedule: Q01DX001 (ip), vehicle: carboxymethylcellulose (CMC) 100 % of control | dose: 200.0 mg/kg/injection, schedule: Q01DX001 (ip), vehicle: carboxymethylcellulose (CMC) 92 % of control | dose: 400.0 mg/kg/injection, schedule: Q01DX001 (ip), vehicle: carboxymethylcellulose (CMC) 97 % of control

c1ccc(-c2ccc(-c3nnn4ccccc34)cc2)cc1
inactive: [2] 107 % of control | [10] 86 % of control | [11] 95 % of control

CC1OC(OCC2OC(Oc3c(-c4ccc(O)c(O)c4)oc4cc(O)cc(O)c4c3=O)C(O)C(O)C2O)C(O)C(O)C1O (stereo not given)
inactive: [2] 100 % of control | [10] 102 % of control | [11] 100 % of control

N=c1c2cnn(C3OC(CO)C(O)C3O)c2ncn1N (stereo not given)
inactive: dose: 6.25 mg/kg/injection, schedule: Q01DX009 (ip), vehicle: water 103 % of control | [12] 115 % of control and 112 % of control | [13] 91 % of control

Cc1ccc(S(=O)(=O)O/N=C2/CCSc3ccccc32)cc1
inactive: dose: 100.0 mg/kg/injection, schedule: Q01DX001 (ip), vehicle: acetone 100 % of control | dose: 200.0 mg/kg/injection, schedule: Q01DX001 (ip), vehicle: acetone 97 % of control | dose: 400.0 mg/kg/injection, schedule: Q01DX001 (ip), vehicle: acetone 97 % of control

O=C1c2c(O)ccc(Cl)c2C(=O)c2c(O)ccc(Cl)c21
inactive: [8] 95 % of control | [9] 93 % of control | [14] 97 % of control

CSc1cccc(NC2=NCCO2)c1
inactive: [5] 90 % of control | [6] 93 % of control | [15] 86 % of control

CCOC(CNCc1ccc(OC)cc1)OCC
inactive: [2] 104 % of control | [10] 111 % of control

COc1ccc2c(c1)C1(C)CCC(=O)C(C)=C1CC2 (stereo not given)
inactive: [2] 105 % of control | [10] 98 % of control | [11] 98 % of control

Cc1nc2c(c(=O)[nH]1)C(c1ccccc1)C(C)(C)O2 (stereo not given)
inactive: [8] 96 % of control | [5] 93 % of control | [9] 93 % of control | [6] 96 % of control | [14] 93 % of control | [15] 93 % of control

O=C(OCc1ccccc1)OC1C2COC(O2)C(OC(=O)OCc2ccccc2)C1O (stereo not given)
inactive: [8] 95 % of control | [9] 95 % of control | [14] 89 % of control

CC(C)C(C)(C)OC(=O)c1ccc([N+](=O)[O-])cc1
inactive: [2] 100 % of control | [10] 96 % of control | [11] 98 % of control

C/C(CCc1ccccc1)=N/O
inactive: dose: 100.0 mg/kg/injection, schedule: Q01DX009 (ip), vehicle: other 100 % of control | dose: 200.0 mg/kg/injection, schedule: Q01DX009 (ip), vehicle: other 103 % of control | dose: 400.0 mg/kg/injection, schedule: Q01DX009 (ip), vehicle: other 101 % of control

C=C(Cl)CSCC
inactive: dose: 25.0 mg/kg/injection, schedule: Q01DX009 (ip), vehicle: acetone 114 % of control | dose: 50.0 mg/kg/injection, schedule: Q01DX009 (ip), vehicle: acetone 120 % of control

ClCC(Cl)CN(Cc1ccccc1)Cc1ccccc1 (stereo not given)
inactive: [1] 102 % of control | [8] 102 % of control | [3] 93 % of control | [9] 104 % of control | [4] 98 % of control

O=C1CC(=O)NC(=O)C1
inactive: [12] 95 % of control | dose: 25.0 mg/kg/injection, schedule: Q01DX009 (ip), vehicle: water 92 % of control | [13] 94 % of control | dose: 100.0 mg/kg/injection, schedule: Q01DX009 (ip), vehicle: water 92 % of control | dose: 200.0 mg/kg/injection, schedule: Q01DX009 (ip), vehicle: water 94 % of control

Clc1nc2ccccc2c2ccccc12
inactive: [7] 97 % of control | [8] 94 % of control | [5] 109 % of control | [9] 92 % of control | [6] 111 % of control

CCCCNC(=O)/C=C\C(=O)O
inactive: [5] 97 % of control | [6] 100 % of control | [15] 100 % of control

Cc1ccc(S(=O)(=O)OCC2OCOC(C(O)CI)C2O)cc1 (stereo not given)
inactive: [1] 92 % of control | [3] 92 % of control | [4] 102 % of control

CC(=O)Nc1nc(C)cs1
inactive: dose: 75.0 mg/kg/injection, schedule: Q01DX001 (ip), vehicle: saline 98 % of control | dose: 150.0 mg/kg/injection, schedule: Q01DX001 (ip), vehicle: saline 97 % of control | dose: 300.0 mg/kg/injection, schedule: Q01DX001 (ip), vehicle: saline 98 % of control

Cc1cc(C)c(C(=O)CC(O)(C(F)(F)F)C(F)(F)F)c(C)c1
inactive: [5] 115 % of control | [6] 107 % of control | [15] 107 % of control

O=S1OCC2(CO1)COS(=O)OC2 (stereo not given)
inactive: dose: 3.13 mg/kg/injection, schedule: Q01DX001 (ip), vehicle: saline with Tween-80 108 % of control | dose: 6.25 mg/kg/injection, schedule: Q01DX001 (ip), vehicle: saline with Tween-80 100 % of control

Cc1ccc(-c2csc(/N=C/c3ccccc3O)n2)cc1
inactive: [1] 89 % of control | [3] 86 % of control | [4] 86 % of control

CCC1(C)N=C(C)C(C)S1 (stereo not given)
inactive: [8] 89 % of control | [9] 100 % of control | [14] 91 % of control
